The nature of data set [1]: Octanol-water partition coefficient, log P of the compound. Format: physicochemical.
For a further data set, the system named is Entamoeba histolytica. Briefly: Antiamoebic activity against Entamoeba histolytica HM-1:IMSS by microdilution method. Format: functional, organism-based.
Data set [2] relates to H9c2. Briefly: Cytotoxicity against rat H9c2 cells assessed as cell viability at 100 uM after 48 hrs by MTT assay. Format: cell-based. To be noted: h9c2, 48 h.
Data set [3] in a line: (§1) Cytotoxicity against rat H9c2 cells assessed as cell viability at 200 uM after 48 hrs by MTT assay. In kind it is cell-based. The note with it: H9c2 cells, read-out: Activity.
Data set [4] is described as follows: Cytotoxicity against rat H9c2 cells assessed as cell viability at 3.13 to 25 uM after 48 hrs by MTT assay. The note with it: read-out: Activity. Format: cell-based.
The test system of data set [5] is H9c2. The experiment in a line: Cytotoxicity against rat H9c2 cells assessed as cell viability after 48 hrs by MTT assay. In kind it is cell-based. To be noted: H9c2, 48 h.
Data set [6] is described as follows: Selectivity index, ratio of IC50 for rat H9c2 cells to IC50 for Entamoeba histolytica HM-1:IMSS.
Data set [7] deals with H9c2. Briefly: Cytotoxicity against rat H9c2 cells assessed as cell viability at 50 uM after 48 hrs by MTT assay. Format: cell-based. The note with it: h9c2, 48 h.
For data set [8], the system named is H9c2. The data set is described as §1. In kind it is cell-based. The note with it: h9c2, 48 h, 200 µM.
Another data set can be described thus: in vitro. To be noted: rat, H9c2 cells.

A value given as a limit tells only on which side of the number the result lay.

Description for in vitro: Cytotoxicity against rat H9c2 cells assessed as cell viability at 3.13 uM after 48 hrs by MTT assay

For the molecule `CC(C)=CCC/C(C)=C/C1=NOC(C)(c2ccccn2)O1` (configuration not stated), the logP in data set [1] turned out to be 4.5. Besides, the IC50 with Entamoeba histolytica came out at 2250 nM.
In data set [1], `CC(C)=CCC/C(C)=C/C1=NOC(c2ccccn2)O1` (configuration not stated) had a logP of 3.96. In the data set with Entamoeba histolytica, this molecule displayed an IC50 of 2980 nM.
Turning to `CC(C)=CCC/C(C)=C/C1=NOC(C)(c2ccco2)O1` (configuration not stated), in data set [1], the logP is 5.15. In the data set on Entamoeba histolytica, this molecule displayed an IC50 of 2020 nM.
For the molecule `CC(C)=CCC/C(C)=C/C1=NOC(c2ccco2)O1` (configuration not stated), the log partition coefficient (logP) in data set [1] came out at 4.61. Besides, in the data set with Entamoeba histolytica, 2420 nM corresponded to half-maximal inhibition (IC50).
`CC(C)=CCC/C(C)=C/C1=NOC(C)(c2cccs2)O1` (configuration not stated) came in with a logP in data set [1] of 5.67. In the data set with Entamoeba histolytica, this molecule returned an IC50 of 3010 nM.
Take `CC(C)=CCC/C(C)=C/C1=NOC(c2cccs2)O1` (configuration not stated): in data set [1], the lipophilicity (logP) is 5.13. 2900 nM corresponded to half-maximal inhibition in the data set on Entamoeba histolytica (IC50).
Take `CC(C)=CCC/C(C)=C/C1=NOC(c2ccc3c(c2)OCO3)O1` (configuration not stated): the logP in data set [1] came out at 5.31. The same molecule registered an IC50 with Entamoeba histolytica of 1480 nM.
`CC1(c2ccccn2)ON=C(c2ccc3c(c2)OCO3)O1` (configuration not stated) gave a logP in [1] of 2.34. Also, the Activity entry in the data set with H9c2 [2] and in the data set on H9c2 [7] was “Toxic” each time. In addition, the viability at 48 h, 200 µM in data set [3] came out at 88%. Further, the viability at 48 h in data set [4] was ≥ 82%. The IC50 was 1000 nM with Entamoeba histolytica and > 200000 nM in the data set on H9c2 [5]. Further, the “Ratio IC50” value in data set [6] is on record as >200.
In turn, `c1ccc(C2ON=C(c3ccc4c(c3)OCO4)O2)nc1` (configuration not stated) came in with a logP in data set [1] of 1.8. Further, the Activity entry in the data set with H9c2 [2], in the data set with H9c2 [8] and with H9c2 [7] was “Toxic” in each case. The viability at 48 h in [4] was ≥ 82%. Also, the half-maximal inhibitory concentration (IC50) was determined as 1030 nM in the data set with Entamoeba histolytica and 40000 nM in the data set on H9c2 [5]. Further, the “Ratio IC50” value in data set [6] stood at 38.83.
In [1], `CC1(c2ccco2)ON=C(c2ccc3c(c2)OCO3)O1` (configuration not stated) showed a lipophilicity (logP) of 2.99. Besides, the Activity entry with H9c2 [2], in the data set with H9c2 [8] and in the data set on H9c2 [7] was “Toxic” throughout. Further, the viability at 48 h in data set [4] was ≥ 82%. In addition, the IC50 in the data set with Entamoeba histolytica is 1100 nM; in the data set on H9c2 [5] it was > 200000 nM. Further, the “Ratio IC50” value in data set [6] is given as >181.81.
`c1coc(C2ON=C(c3ccc4c(c3)OCO4)O2)c1` (configuration not stated) showed a log partition coefficient (logP) in data set [1] of 2.45. Moreover, the Activity result in the data set with H9c2 [2], in the data set with H9c2 [8] and with H9c2 [7] was “Toxic” throughout. The viability at 48 h in data set [4] was ≥ 82%. For the same molecule, the IC50 with Entamoeba histolytica is 1090 nM; in the data set on H9c2 [5] it was > 200000 nM. Moreover, in data set [6], the “Ratio IC50” value is >183.48.
The molecule `CC1(c2cccs2)ON=C(c2ccc3c(c2)OCO3)O1` (configuration not stated) displayed a logP in data set [1] of 3.51. In the data set with Entamoeba histolytica, this molecule showed an IC50 of 2680 nM.
`c1csc(C2ON=C(c3ccc4c(c3)OCO4)O2)c1` (configuration not stated) yielded a log partition coefficient (logP) in data set [1] of 2.97. In the data set on Entamoeba histolytica, this molecule came in with an IC50 of 3500 nM.
Consider `CC(C)=CCC/C(C)=C/C1ON=C(c2ccc3c(c2)OCO3)O1` (configuration not stated), for which the log partition coefficient (logP) in data set [1] was determined as 5.44. For the same molecule, the midpoint of inhibition in the data set on Entamoeba histolytica, the IC50, lay at 1390 nM.
As for `CC(C)=CCC/C(C)=C/C1ON=C(c2ccccn2)O1` (configuration not stated), the lipophilicity (logP) in data set [1] came out at 4.08. Moreover, half-maximal inhibition with Entamoeba histolytica (IC50) required 2220 nM.
Turning to `c1ccc(C2=NOC(c3ccc4c(c3)OCO4)O2)nc1` (configuration not stated), the logP in [1] turned out to be 1.8. Moreover, the Activity entry in the data set on H9c2 [2], with H9c2 [8] and with H9c2 [7] was “Toxic” in each case. In addition, in [4], the viability at 48 h was ≥ 82%. Besides, the IC50 stood at 1060 nM in the data set on Entamoeba histolytica and 85000 nM with H9c2 [5]. The “Ratio IC50” value in data set [6] is >80.18.
`CC(C)=CCC/C(C)=C/C1ON=C(c2ccco2)O1` (configuration not stated) displayed a logP in data set [1] of 5.25. In the data set with Entamoeba histolytica, this molecule came in with an IC50 of 2780 nM.
For `c1coc(C2=NOC(c3ccc4c(c3)OCO4)O2)c1` (configuration not stated), the logP in [1] was 2.97. Further, the Activity result in the data set on H9c2 [2], with H9c2 [8] and in the data set with H9c2 [7] was “Toxic” each time. In [4], the viability at 48 h was ≥ 82%. For the same molecule, the IC50 in the data set on Entamoeba histolytica turned out to be 1050 nM; with H9c2 [5] it was 200000 nM. In addition, the “Ratio IC50” value in data set [6] came out at 190.47.
Regarding `CC(C)=CCC/C(C)=C/C1ON=C(c2cccs2)O1` (configuration not stated), the lipophilicity (logP) in data set [1] came to 4.74. Besides, the midpoint of inhibition in the data set with Entamoeba histolytica, the IC50, lay at 3050 nM.
For the molecule `c1csc(C2=NOC(c3ccc4c(c3)OCO4)O2)c1` (configuration not stated), the logP in [1] was 2.45. The same molecule came in with a half-maximal inhibitory concentration (IC50) with Entamoeba histolytica of 2450 nM.
Turning to `Cc1ncc([N+](=O)[O-])n1CCO` [METRONIDAZOLE], the Activity result in the data set with H9c2 [2], with H9c2 [8] and in the data set with H9c2 [7] was “Toxic” throughout. For the same molecule, the IC50 with H9c2 [5] is > 200000 nM. Moreover, the “Ratio IC50” value in data set [6] is recorded as >137.9. In the data set “in vitro”, the viability at 48 h, 3.13 µM came to 100%.

The values above are taken from ChEMBL document CHEMBL1828616, “Novel terpene based 1,4,2-dioxazoles: synthesis, characterization, molecular properties and screening against Entamoeba histolytica” (Eur J Med Chem, 2011).
